Measurements published in US20080045560A1, “Pyrrolidine and related derivatives useful as PR modulators” (Wyeth, priority 2006, published 2008).

What was measured:
[1] = system: progesterone receptor (alkaline phosphatase activity in T47D cells); test: Effects of progestins and antiprogestins on alkaline phosphatase activity in T47D cells (antagonist mode); type: cell-based; conditions: Homo sapiens, in the presence of 1 nM progesterone, 24 h; for inhibition at 0.003 µM: at 3 nM
Experimental: (1) Effects of Progestins and Antiprogestins on Alkaline Phosphatase Activity in T47D Cells.
• PURPOSE: To identify progestins or antiprogestins by determining a compound's effect on alkaline phosphatase activity in T47D cells.
Culture medium: • DMEM:F12 (1:1) (GIBCO, BRL) supplemented with 5% (v/v) charcoal stripped fetal bovine serum (not heat-inactivated), 100 U/mL penicillin, 100 μg/mL streptomycin, and 2 mM the GlutaMax™ reagent (GIBCO, BRL).
Alkaline phosphatase assay buffer: • I. 0.1M Tris-HCl, pH 9.8, containing 0.2% the Triton® X-100 reagent • II. 0.1M Tris-HCl, pH 9.8, containing 4 mM p-nitrophenyl phosphate (Sigma).
Frozen T47D cells were thawed in a 37° C. water bath and diluted to 280,000 cells/mL in culture medium. To each well in a 96-well plate (Falcon, Becton Dickinson Labware), 180 μL of diluted cell suspension was added.
Twenty μL of reference or test compounds diluted in the culture medium was then added to each well. When testing for progestin antagonist activity, reference antiprogestins or test compounds were added in the presence of 1 nM progesterone. The cells were incubated at 37° C. in a 5% CO2/humidified atmosphere for 24 h. NOTE: For high throughput screening, one concentration of each compound was tested at 0.3 μg/mL. Based on an average molecular weight of 300 g/mol for the compounds in the library, the concentration was approximately 1 μM. Subsequently, active compounds were tested in dose response assays to determine EC50 and IC50.
At the end of treatment, the medium was removed from the plate. Fifty μL of assay buffer I was added to each well. The plates were shaken in a titer plate shaker for 15 min. Then 150 μL of assay buffer II was added to each well. Optical density measurements were taken at 5 min intervals for 30 min at a test wavelength of 405 nm.
For reference and test compounds, a dose response curve was generated for dose (X-axis) vs. the rate of enzyme reaction (slope) (Y-axis). Square root-transformed data was used for analysis of variance and nonlinear dose response curve fitting for both agonist and antagonist modes. Huber weighting was used to down-weight the effects of outliers. EC50 or IC50 values were calculated from the retransformed values. JMP software (SAS Institute, Inc.) was used for both one-way analysis of variance and non-linear dose response analysis in both single dose and dose response studies.
Progesterone and trimegestone were reference progestins and RU486 was the reference antiprogestin. All reference compounds were run in full dose response curves and the EC50 and IC50 values were calculated.

C[C@@H]1COC(=O)N1c1nc(-c2ccc(Br)cc2)cs1 [Example 1, (4R)-3-[4-(4-Bromophenyl)-1,3-thiazol-2-yl]-4-methyl-1,3-oxazolidin-2-one]
melting point: 197 to 199 °C

CCC1(CC)COC(=O)N1c1nc(-c2ccc(C#N)cc2)cs1 [Example 2, 4-[2-(4,4-Diethyl-2-oxo-1,3-oxazolidin-3-yl)-1,3-thiazol-4-yl]benzonitrile]
melting point: 145 to 147 °C

CC1(C)COC(=O)N1c1nc(-c2cccc(C#N)c2)cs1 [Example 3, 3-[2-(4,4-dimethyl-2-oxo-1,3-oxazolidin-3-yl)-1,3-thiazol-4-yl]benzonitrile]
melting point: 181 to 183 °C

CC1(C)C=CC(=O)N1c1nc(-c2ccc(C#N)cc2)cs1 [Example 7, 4-[2-(2,2-Dimethyl-5-oxo-2,5-dihydro-1H-pyrrol-1-yl)-1,3-thiazol-4-yl]benzonitrile]
inhibition at 0.003 µM [1]: 60%

CC1(C)CCC(=O)N1c1nc(-c2ccc(C#N)cc2)cs1 [Example 8, 4-[2-(2,2-Dimethyl-5-oxopyrrolidin-1-yl)-1,3-thiazol-4-yl]benzonitrile]
inhibition at 0.003 µM [1]: 50%

CC1(C)CCC(=O)N1c1nc(-c2ccc(C#N)cc2)c(F)s1 [Example 9, 4-[2-(2,2-Dimethyl-5-oxopyrrolidin-1-yl)-5-fluoro-1,3-thiazol-4-yl]benzonitrile]
IC50 [1]: 31.6 nM

O=C1C2CCC(CC2)N1c1nc(-c2ccc(Br)cc2)cs1 [Example 10, 2-[4-(4-bromophenyl)-1,3-thiazol-2-yl]-2-azabicyclo[2.2.2]octan-3-one]
IC50 [1]: 44.4 nM

N#Cc1ccc(-c2csc(N3C(=O)C4CCC3CC4)n2)cc1 [Example 11, 4-[2-(3-oxo-2-azabicyclo[2.2.2]oct-2-yl)-1,3-thiazol-4-yl]benzonitrile]
IC50 [1]: 4.8 nM
